ChEMBL document CHEMBL3885881, “DrugMatrix”

Species: Rattus norvegicus
Assay: DrugMatrix - Regimen: Daily Repeat
Format: toxicity, organism-based, Sprague-Dawley
Set-up: regimen Daily Repeat, gender Male, age 6-8 weeks
Settings: in vivo, po, route oral GAVAGE, vehicle 100 % SALINE; for ABSOLUTE BASOPHIL / ABSOLUTE EOSINOPHIL / ABSOLUTE LYMPHOCYTE / ABSOLUTE MONOCYTE / ABSOLUTE SEGMENTED NEUTROPHIL / BASOPHIL / EOSINOPHIL / ERYTHROCYTE COUNT / HEMATOCRIT / HEMOGLOBIN / LEUKOCYTE COUNT / LYMPHOCYTE / MEAN CORPUSCULAR HEMOGLOBIN / MEAN CORPUSCULAR HEMOGLOBIN CONCENTRATION / MEAN CORPUSCULAR VOLUME / MONOCYTE / NEUTROPHIL / NUCLEATED RED BLOOD CELLS / PLATELET COUNT: tissue Blood; for ALANINE AMINOTRANSFERASE / ALBUMIN / ALKALINE PHOSPHATASE / ASPARTATE AMINOTRANSFERASE / BLOOD UREA NITROGEN / CARBON DIOXIDE / CHLORIDE / CHOLESTEROL / CREATINE PHOSPHOKINASE / CREATININE / GLUCOSE / LACTATE DEHYDROGENASE / LIPASE / PHOSPHORUS / POTASSIUM / SODIUM / TOTAL BILIRUBIN / TOTAL PROTEIN / URIC ACID: tissue Plasma
[1] = 11 mg/kg, 120 h, dose level High, time 5 day
[2] = […], 72 h, dose 2.8 mg/Kg, dose level Low, time 3 day
[3] = […], 120 h, dose 2.8 mg/Kg, dose level Low, time 5 day

## Cc1cc(CC(=O)O)n(C)c1C(=O)c1ccc(Cl)cc1 [ZOMEPIRAC]
[1]
  ABSOLUTE BASOPHIL: 0 CELLS/uL
  ABSOLUTE EOSINOPHIL: 95 CELLS/uL
  ABSOLUTE LYMPHOCYTE: 12621.33 CELLS/uL
  ABSOLUTE MONOCYTE: 94.67 CELLS/uL
  ABSOLUTE SEGMENTED NEUTROPHIL: 855.67 CELLS/uL
  BASOPHIL: 0%
  EOSINOPHIL: 0.67%
  ERYTHROCYTE COUNT: 5.5 x10E6/uL
  HEMATOCRIT: 34.03%
  HEMOGLOBIN: 13.2 G/DL
  LEUKOCYTE COUNT: 13.67 x10E3/uL
  LYMPHOCYTE: 92.33%
  MEAN CORPUSCULAR HEMOGLOBIN: 24.13 pg
  MEAN CORPUSCULAR HEMOGLOBIN CONCENTRATION: 38.87 G/DL
  MEAN CORPUSCULAR VOLUME: 62.1 fL
  MONOCYTE: 0.67%
  NEUTROPHIL: 6.33%
  NUCLEATED RED BLOOD CELLS: 0 /100WBC
  PLATELET COUNT: 1240 x10E3/uL
  ALANINE AMINOTRANSFERASE: 49.33 u/L
  ALBUMIN: 3.77 G/DL
  ALKALINE PHOSPHATASE: 252.67 u/L
  ASPARTATE AMINOTRANSFERASE: 97.67 u/L
  BLOOD UREA NITROGEN: 15.67 mg/dL
  CARBON DIOXIDE: 24 mmol/L
  CHLORIDE: 105.33 MEQ/L
  CHOLESTEROL: 76.67 mg/dL
  CREATINE PHOSPHOKINASE: 395.67 u/L
  CREATININE: 0.17 mg/dL
  GLUCOSE: 143.33 mg/dL
  LACTATE DEHYDROGENASE: 595 u/L
  LIPASE: 8.67 u/L
  PHOSPHORUS: 11.83 mg/dL
  POTASSIUM: 6.93 MEQ/L
  SODIUM: 148.57 MEQ/L
  TOTAL BILIRUBIN: 0.13 mg/dL
  TOTAL PROTEIN: 5.87 G/DL
  URIC ACID: 2.33 mg/dL
[2]
  ABSOLUTE BASOPHIL: 0 CELLS/uL
  ABSOLUTE EOSINOPHIL: 111.67 CELLS/uL
  ABSOLUTE LYMPHOCYTE: 15209 CELLS/uL
  ABSOLUTE MONOCYTE: 151.67 CELLS/uL
  ABSOLUTE SEGMENTED NEUTROPHIL: 1061 CELLS/uL
  BASOPHIL: 0%
  EOSINOPHIL: 0.67%
  ERYTHROCYTE COUNT: 5.59 x10E6/uL
  HEMATOCRIT: 34.1%
  HEMOGLOBIN: 13.53 G/DL
  LEUKOCYTE COUNT: 16.53 x10E3/uL
  LYMPHOCYTE: 91.33%
  MEAN CORPUSCULAR HEMOGLOBIN: 24.2 pg
  MEAN CORPUSCULAR HEMOGLOBIN CONCENTRATION: 39.7 G/DL
  MEAN CORPUSCULAR VOLUME: 60.97 fL
  MONOCYTE: 1%
  NEUTROPHIL: 7%
  NUCLEATED RED BLOOD CELLS: 0 /100WBC
  PLATELET COUNT: 1145.33 x10E3/uL
  ALANINE AMINOTRANSFERASE: 50.67 u/L
  ALBUMIN: 4 G/DL
  ALKALINE PHOSPHATASE: 259 u/L
  ASPARTATE AMINOTRANSFERASE: 76.67 u/L
  BLOOD UREA NITROGEN: 14.67 mg/dL
  CARBON DIOXIDE: 23 mmol/L
  CHLORIDE: 102 MEQ/L
  CHOLESTEROL: 65.33 mg/dL
  CREATINE PHOSPHOKINASE: 362.33 u/L
  CREATININE: 0.2 mg/dL
  GLUCOSE: 180 mg/dL
  LACTATE DEHYDROGENASE: 137 u/L
  LIPASE: 12.33 u/L
  PHOSPHORUS: 13.07 mg/dL
  POTASSIUM: 6.11 MEQ/L
  SODIUM: 141.93 MEQ/L
  TOTAL BILIRUBIN: 0.2 mg/dL
  TOTAL PROTEIN: 5.77 G/DL
  URIC ACID: 1.6 mg/dL
[3]
  ABSOLUTE BASOPHIL: 0 CELLS/uL
  ABSOLUTE EOSINOPHIL: 70.67 CELLS/uL
  ABSOLUTE LYMPHOCYTE: 13627.67 CELLS/uL
  ABSOLUTE MONOCYTE: 0 CELLS/uL
  ABSOLUTE SEGMENTED NEUTROPHIL: 1235 CELLS/uL
  BASOPHIL: 0%
  EOSINOPHIL: 0.33%
  ERYTHROCYTE COUNT: 5.81 x10E6/uL
  HEMATOCRIT: 35.67%
  HEMOGLOBIN: 14.07 G/DL
  LEUKOCYTE COUNT: 14.93 x10E3/uL
  LYMPHOCYTE: 91.33%
  MEAN CORPUSCULAR HEMOGLOBIN: 24.23 pg
  MEAN CORPUSCULAR HEMOGLOBIN CONCENTRATION: 39.47 G/DL
  MEAN CORPUSCULAR VOLUME: 61.53 fL
  MONOCYTE: 0%
  NEUTROPHIL: 8.33%
  NUCLEATED RED BLOOD CELLS: 0 /100WBC
  PLATELET COUNT: 1274.67 x10E3/uL
  ALANINE AMINOTRANSFERASE: 59.33 u/L
  ALBUMIN: 4.17 G/DL
  ALKALINE PHOSPHATASE: 331 u/L
  ASPARTATE AMINOTRANSFERASE: 103.33 u/L
  BLOOD UREA NITROGEN: 16.33 mg/dL
  CARBON DIOXIDE: 22.67 mmol/L
  CHLORIDE: 104.67 MEQ/L
  CHOLESTEROL: 64.33 mg/dL
  CREATINE PHOSPHOKINASE: 532.33 u/L
  CREATININE: 0.2 mg/dL
  GLUCOSE: 159.67 mg/dL
  LACTATE DEHYDROGENASE: 749.67 u/L
  LIPASE: 10 u/L
  PHOSPHORUS: 12.53 mg/dL
  POTASSIUM: 6.9 MEQ/L
  SODIUM: 147.37 MEQ/L
  TOTAL BILIRUBIN: 0.2 mg/dL
  TOTAL PROTEIN: 6.2 G/DL
  URIC ACID: 2 mg/dL
